Laboratory results taken from the supplement of paper PMC8671470.

Key:
Conditions in all cases: 72 h
HEL [1] = system: HEL
How it was run: (§1)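 Fifteen myeloid leukaemia cell lines were seeded in RPMI 1640 at densities titrated to the linear growth range and placed in 384-well plates with acoustically pre-printed compounds at five tenfold doses from 1 to 10,000 nM, in duplicate. After 72 h at 37 °C with 5% CO2, luminescent ATP viability was normalised to vehicle and to a positive control at 10 µM, and curves were fitted with a four-parameter log-logistic model. The IC50 was obtained from these fits.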

NOMO-1 [2] = system: NOMO-1
How it was run: as §1

MV4-11 [3] = system: MV4-11
How it was run: as §1

ML-2 [4] = system: ML-2
How it was run: as §1

SHI-1 [5] = system: SHI-1
How it was run: as §1

LAMA-84 = system: LAMA-84
How it was run: as §1

K-562 [6] = system: K-562
How it was run: as §1

KG-1 [7] = system: KG-1
How it was run: as §1

KCL-22 [8] = system: KCL-22
How it was run: as §1

KU-812 [9] = system: KU-812
How it was run: as §1

MOLM-13 [10] = system: MOLM-13
How it was run: as §1

Mono-Mac-6 [11] = system: Mono-Mac-6
How it was run: as §1

THP-1 [12] = system: THP-1
How it was run: as §1

HL-60 [13] = system: HL-60
How it was run: as §1

BV-173 [14] = system: BV-173
How it was run: as §1

HL-60 [15] = assay: area under dose-response curve (viability, 1 nM-10 uM) (fraction (0-1)); higher = more sensitive
How it was run: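 In 384-well plates, the full library was rescreened in duplicate on HL-60 cells in RPMI 1640 with 10% FBS, at 1–10,000 nM in five tenfold concentrations, for 72 h at 37 °C, 5% CO2. Each run also held DMSO or 100 nM of one of three metabolic inhibitors. Viability was measured by CellTiter-Glo and normalised to DMSO wells and to wells with proteasome inhibitor, present at 10 μM. Any area under the curve comes from four-parameter log-logistic fitting with drc and PharmacoGx.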

HEL [16] = assay: cell viability (% survival relative to DMSO control, bortezomib = 0%); higher = less cytotoxic
How it was run: (§2)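 Seeding density for each of the 10 AML and 5 CML cell lines was titrated to the linear growth range. Cells went into 384-well plates pre-printed in duplicate with compounds at 1, 10, 100, 1000 or 10000 nM and were held for 72 h at 37 °C with 5% CO2. CellTiter-Glo luminescence then provided the readout. Percent survival is expressed relative to vehicle at 100% and a 10 µM positive control at 0%, averaged over duplicates.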

NOMO-1 [17] = assay: as above
How it was run: as §2

MV4-11 [18] = assay: as above
How it was run: as §2

ML-2 [19] = assay: as above
How it was run: as §2

SHI-1 [20] = assay: as above
How it was run: as §2

K-562 [21] = assay: as above
How it was run: as §2

KG-1 [22] = assay: as above
How it was run: as §2

KCL-22 [23] = assay: as above
How it was run: as §2

KU-812 [24] = assay: as above
How it was run: as §2

MOLM-13 [25] = assay: as above
How it was run: as §2

Mono-Mac-6 [26] = assay: as above
How it was run: as §2

THP-1 [27] = assay: as above
How it was run: as §2

HL-60 [28] = assay: as above
How it was run: as §2

BV-173 [29] = assay: as above
How it was run: as §2

O=c1oc2c(O)c(O)cc3c(=O)oc4c(O)c(O)cc1c4c23 [Benzoaric Acid]
Conditions | IC50 (cell viability) [µM]
BV-173 [14] | > 10
HEL [1] | > 10
HL-60 [13] | > 10
K-562 [6] | > 10
KCL-22 [8] | > 10
KG-1 [7] | > 10
KU-812 [9] | > 10
LAMA-84 | > 10
ML-2 [4] | > 10
MOLM-13 [10] | > 10
MV4-11 [3] | > 10
Mono-Mac-6 [11] | > 10
NOMO-1 [2] | > 10
SHI-1 [5] | > 10
THP-1 [12] | > 10

Conditions | area under dose-response curve, co-treatment: AZD3965 100 nM | area under dose-response curve, co-treatment: DMSO vehicle | area under dose-response curve, co-treatment: GSK2194069 100 nM | area under dose-response curve, co-treatment: pictilisib 100 nM | cell viability, 1 nM [%] | cell viability, 10 nM [%] | cell viability, 100 nM [%] | cell viability, 1000 nM [%] | cell viability, 10000 nM [%]
BV-173 [29] | – | – | – | – | 92.9 | 101 | 92.8 | 97.9 | 99.1
HEL [16] | – | – | – | – | 113 | 100 | 107 | 92.3 | 114
HL-60 [15] | < 0.0301 | < 0.0301 | 0.0302 | 0.0302 | – | – | – | – | –
HL-60 [28] | – | – | – | – | 94.6 | 106 | 90.7 | 92 | 102
K-562 [21] | – | – | – | – | 111 | 93.6 | 94.9 | 87.7 | 90.1
KCL-22 [23] | – | – | – | – | 100 | 111 | 99 | 97.8 | 124
KG-1 [22] | – | – | – | – | 103 | 107 | 96.6 | 90.4 | 120
KU-812 [24] | – | – | – | – | 98.4 | 97 | 95.1 | 92.4 | 110
ML-2 [19] | – | – | – | – | 94.7 | 101 | 95.9 | 95.1 | 108
MOLM-13 [25] | – | – | – | – | 92.9 | 99.6 | 96 | 92.9 | 110
MV4-11 [18] | – | – | – | – | 107 | 90.5 | 98.8 | 94.2 | 97.2
Mono-Mac-6 [26] | – | – | – | – | 108 | 109 | 103 | 92.5 | 118
NOMO-1 [17] | – | – | – | – | 102 | 104 | 104 | 99.9 | 102
SHI-1 [20] | – | – | – | – | 97.7 | 106 | 99.7 | 94.3 | 120
THP-1 [27] | – | – | – | – | 102 | 97.3 | 94.3 | 99.4 | 100
